≈ marks a conversion by molar mass, not a printed value. Like-named read-outs stand apart in the source and are kept apart here.
Assays:
[1] = system: MES-SA/DX5 (multidrug resistant carcinoma subline of MES-SA); assay: SRB cytotoxicity test, MES-SA/DX5; format: cell-based, human; settings: Homo sapiens, MES-SA/Dx5, 48 h, read-out: Cytotoxicity IC50, MES-SA/DX5
Description: (§1) To determine the cytotoxicity against human tumor cell line of the test samples prepared in Examples, following sulforhodamin B (SRB) bioassy test was performed according to the method disclosed in the literature (Skehan, P., et al., J. Natl. Cancer Inst., 82, 1990, 1107-1112).
(§2) Various human tumor cell lines, i.e., A-549 (human adenocarcinoma of lung, NCI), SK-OV-3 (human ovarian tumor, NCI), SK-MEL-2 (human malignant melanoma, NCI), HCT15 (human colon adenocarcinoma, NCI), MES-SA (human uterine carcinoma, NCI) and MES-SA/DX5 (multidrug resistant carcinoma subline of MES-SA, NCI) were used in the test.
(§3) The subcultured cell lines were detached from the surface of wall using by trypsin-EDTA solution and adjusted to various concentration of cell lines, i.e., 5×10^3 cells/well (A-549, HCT15), 1×10^4 cells/well (SK-MEL-2), 5×10^3 cells/well (SK-OV-3) in 96-well flat bottom microplate. The inoculated cell lines were incubated in CO2 incubator (MCO-20AIC, SANYO Electric Co., LTd.) to be attached on the bottom of incubator and the culture media was removed with aspirator. 6 logarithmic concentrations of the diluted test samples were added to each well containing cell line at 100 μl/well in a three fold dilution manner and the cell was incubated for 48 hours. The culture media in each well was removed and 100μ of 10% trichloroacetic acid was added thereto to be left alone at 4° C. for 1 hour and to fix the cells to the bottom of the plates. […] The cell plates were shaked with titer plate shaker (KOMA Orbital Shaker KE011, KOMABIOTech) for 10 mins to exude the staining solution and to determine the absorbance at 520 nm using by microplate spectrophotometer (Sunrise, TECAN).

[2] = system: MES-SA (human uterine carcinoma); assay: SRB cytotoxicity test, MES-SA; format: cell-based; settings: Homo sapiens, MES-SA, 48 h
Description: as §1, §2, §3

HCT15/CL02 = assay: SRB cytotoxicity test, HCT15/CL02; format: cell-based, human; settings: Homo sapiens, HCT-15; Table 4, 48 hours
Description: To determine the cytotoxicity against human tumor cell line of the test samples prepared in Examples, following sulforhodamin B (SRB) bioassy test was performed according to the method disclosed in the literature (Skehan, P., et al., J. Natl. […] The inoculated cell lines were incubated in CO2 incubator (MCO-20AIC, SANYO Electric Co., LTd.) to be attached on the bottom of incubator and the culture media was removed with aspirator. 6 logarithmic concentrations of the diluted test samples were added to each well containing cell line at 100 μl/well in a three fold dilution manner and the cell was incubated for 48 hours. […] The cell plates were shaked with titer plate shaker (KOMA Orbital Shaker KE011, KOMABIOTech) for 10 mins to exude the staining solution and to determine the absorbance at 520 nm using by microplate spectrophotometer (Sunrise, TECAN).

HPV16 PVs [3] = assay: Virus inhibition test (in vitro), SEAP activity of 293TT cells infected with HPV pseudovirion; format: cell-based; settings: Human papillomavirus 16, read-out: inhibitory activity from HPV16 PVs
Description: Prior to in vitro antiviral assay, 5×10^3 of 293TT cell was seeded on 96-well plate and incubated at 37° C. for 16 hours in 5% CO2 atmosphere. The culture media was removed and each extract was diluted to the concentration of 100 μg/ml or 50 μg/ml to distribute into each cell at the dose of 100 μl/cell. After treating with the extract for 16 hours, the culture media was removed and the cell was washed with PBS twice. The cell was infected by 106RLU/ml of HPV PVs at the dose of 100 μl/cell and incubated for 48 hours at 37° C. in 5% CO2 atmosphere. To determine the viral activity, the supernatant of the cell culture was used for determine the activity of secreted alkaline phosphatase (SEAP) using by Great EscAPE™ SEAP Chemiluminescence Kit (631738, Clontech, CA, USA). To determine the SEAP activity, relative light units (RLU) value was obtained using by Luminescence coulter (Micro beta triLux 1450, PerkinElmer, CT, USA) and the RLU values of the cell treated with the extract and untreated with the extract, were compared with each other. The decrease of SEAP activity was regarded as the inhibition effect against HPV PVs.
To determine the inhibitory effect on luciferase-comprising HPV virus contagion of the test samples prepared in Examples, following test was performed according to the method disclosed in the literature (Shaneyfelt et al., Virology Journal, 3:68, 2006, 1-11; Roden et al., J. Virol., 70, 1996, 5875-5883; Unckell et al., J. Virol., 71, 1997, 2934-2939; Touze et al., Nucleic Acids Research, 26, 1998, 1317-1323; Selinka et al., J. Virol., 77, 2003, 12961-12967; Klasse et al., Journal of General Virology, 83, 2002, 2091-2108)
5×10^3293TT cell was seeded on 96-well plate and incubate for 16 hours. 50 μg of test sample was mixed with the culture media in the concentration of 100 ug/ml and incubated for 16 hours. The media was washed with 100 μl of PBS twice and the cell was infected with 10^6RLU/ml of HPV pseudovirion at the dose of 100 μl/cell to incubate at 37° C., for 48 hours in 5% CO2 atmosphere.
5× lysis buffer in Great EscAPE™ SEAP Chemiluminescence Kit (631738, Clontech, CA, USA) was made to 1× and both of 45 μl of 1× lysis buffer and 15 μl of cell culture medium were added to 96-well plate (3912, Costar, NY, USA). 60 μl of the substrate in Great EscAPE™ SEAP Chemiluminescence kit was added thereto and the relative light units (RLU) value was obtained using by Luminescence coulter (Micro beta triLux 1450, PerkinElmer, CT, USA). The RLU values of the cell treated with the extract and untreated with the extract, were compared with each other and the decrease of SEAP activity was regarded as the inhibition effect against HPV PVs.

[4] = system: HCT15 (human colon adenocarcinoma); assay: SRB cytotoxicity test, HCT15; format: cell-based; settings: Homo sapiens, HCT-15, 48 h
Description: as §1, §2, §3

HPV16 PVs [5] = assay: Virus inhibition test (in vitro), SEAP activity of 293TT cells infected with HPV pseudovirion; format: cell-based; settings: Human papillomavirus 16, read-out: inhibitory activity on HPV16 PVs
[6] = system: SK-MEL-2 (human malignant melanoma); assay: SRB cytotoxicity test, SK-MEL-2; format: cell-based; settings: Homo sapiens, read-out: Cytotoxicity IC50, SK-MEL-2
Description: as §1, §2, §3

[7] = system: SK-OV-3 (human ovarian tumor); assay: SRB cytotoxicity test, SK-OV-3; format: cell-based; settings: Homo sapiens, read-out: Cytotoxicity IC50, SK-OV-3
Description: as §1, §2, §3

[8] = system: A-549 (human adenocarcinoma of lung); assay: SRB cytotoxicity test, A-549; format: cell-based; settings: Homo sapiens, read-out: Cytotoxicity IC50, A-549
Description: as §1, §2, §3

[9] = Table 4, 48 hours, read-out: Cytotoxicity IC50, MES-SA
[10] = Table 4, 48 hours, read-out: Cytotoxicity IC50, HCT15
[11] = Table 3, 48 hours, read-out: Cytotoxicity IC50, MES-SA
[12] = Table 3, 48 hours, read-out: Cytotoxicity IC50, HCT15

| SMILES | IC50 [1] [µg/mL] | IC50 [2, 9] [µg/mL] | IC50 (HCT15/CL02) [µg/mL] | inhibition at 50 µg/mL (HPV16 PVs [3]) [%] | IC50 [4, 10] [µg/mL] | IC50 ([6]; SK-MEL-2, 48 h) [µg/mL] | IC50 ([7]; SK-OV-3, 48 h) [µg/mL] | IC50 ([8]; A549, 48 h) [µg/mL] | IC50 ([6]; SK-MEL-2, Table 3, 48 hours) [µg/mL] | IC50 [2, 11] [µg/mL] | IC50 ([7]; SK-OV-3, Table 3, 48 hours) [µg/mL] | IC50 [4, 12] [µg/mL] | IC50 ([8]; A549, Table 3, 48 hours) [µg/mL] | also measured |
| --- | --- | --- | --- | --- | --- | --- | --- | --- | --- | --- | --- | --- | --- | --- |
| CC(C)c1ccc2c(c1)[C@H](O)CC1[C@](C)(C(=O)O)CCC[C@]21C (stereo partly drawn) [compound (f), 7α-hydroxycallitirisic acid] | 27.4 (≈ 86.7 µM) | 26.8 (≈ 84.7 µM) | > 30 | 70 to 80 | > 30 | – | – | – | – | – | – | – | – | – |
| CC(C)(O)c1ccc2c(c1)C(=O)C[C@H]1[C@](C)(C(=O)O)CCC[C@]21C [compound (g), 7-oxo-15-hydroxydehydroabietic acid] | > 30 | > 30 | > 30 | 70 to 80 | > 30 | – | – | – | – | – | – | – | – | – |
| CC(C)c1ccc2c(c1)CC[C@H]1[C@](C)(C(=O)O)CCC[C@]21C [compound (i), dehydroabietic acid] | 12 (≈ 40 µM) | – | – | 70 to 80 | – | 13 (≈ 43.3 µM) | 17.3 (≈ 57.5 µM) | 13.4 (≈ 44.7 µM) | – | – | – | – | – | inhibition at 5 µg/mL (HPV16 PVs [5]): ~50%; IC50 ([2]; read-out: Cytotoxicity IC50, MES-SA): 10.3 µg/mL (≈ 34.4 µM); IC50 ([4]; read-out: Cytotoxicity IC50, HCT15): 15.7 µg/mL (≈ 52.2 µM) |
| CC(C)(O)c1ccc2c(c1)CC[C@H]1[C@](C)(C(=O)O)CCC[C@]21C [compound (k), 15-hydroxydehydroabietic acid] | 91.9 (≈ 290 µM) | – | – | 70 to 80 | – | – | – | – | 88.8 (≈ 281 µM) | 90.7 (≈ 286 µM) | 142 (≈ 448 µM) | 98.2 (≈ 310 µM) | 109 (≈ 345 µM) | – |
| C=C1CC[C@H]2O[C@]2(C)CC[C@@H]2[C@@H]1CC2(C)C [compound (l), caryophyllene oxide] | 17.7 (≈ 80.5 µM) | – | – | 70 to 80 | – | – | – | – | 18.6 (≈ 84.6 µM) | 15.2 (≈ 69.2 µM) | 23.7 (≈ 108 µM) | 26.8 (≈ 121 µM) | 36.4 (≈ 165 µM) | – |
| COc1cccc2c1C(=O)c1c(O)c3c(c(O)c1C2=O)C[C@@](O)(C(=O)CO)C[C@@H]3O[C@H]1C[C@H](N)[C@H](O)[C@H](C)O1 [doxorubicin, reference compound] | – | – | 2.11 (≈ 3.88 µM) | – | – | 0.0012 (≈ 0.00221 µM) | 0.0104 (≈ 0.0191 µM) | 0.0072 (≈ 0.0132 µM) | – | – | – | – | – | IC50 ([1]; Table 1, extract and solvent fractions, 48 hours): 0.412 µg/mL (≈ 0.758 µM); IC50 ([1]; Table 2, purified extracts, 48 hours): 0.412 µg/mL (≈ 0.758 µM); IC50 ([1]; Table 3, 48 hours): 1.45 µg/mL (≈ 2.67 µM); IC50 ([1]; Table 4, 48 hours): 1.45 µg/mL (≈ 2.67 µM); IC50 ([2]; read-out: Cytotoxicity IC50, MES-SA, Table 1, extract and solvent fractions, 48 hours): 0.0002 µg/mL (≈ 0.000368 µM); IC50 ([2]; read-out: Cytotoxicity IC50, MES-SA, Table 2, purified extracts, 48 hours): 0.0002 µg/mL (≈ 0.000368 µM); IC50 ([2]; read-out: Cytotoxicity IC50, MES-SA, Table 3, 48 hours): 0.0051 µg/mL (≈ 0.00938 µM); IC50 ([2]; read-out: Cytotoxicity IC50, MES-SA, Table 4, 48 hours): 0.0051 µg/mL (≈ 0.00938 µM); IC50 ([4]; read-out: Cytotoxicity IC50, HCT15, Table 3, 48 hours): 0.0833 µg/mL (≈ 0.153 µM); IC50 ([4]; read-out: Cytotoxicity IC50, HCT15, Table 4, 48 hours): 0.016 µg/mL (≈ 0.0294 µM) |
